Earlier results, collected in patent US20090318526A1, “Use of cannabinoid receptor agonists as hypothermia inducing drugs for the treatment of ischemia” (priority 2006, published 2009).

System: Sprague-Dawley rats
Details: Leker et al. [37]

## CCCCCCC(C)(C)c1cc(O)c2c(c1)OC(C)(C)[C@@H]1CC=C(CO)C[C@@H]21 [HU-210, (−)-11-OH-delta-8-tetrahydrocannabinoldimethylheptyl]
Sprague-Dawley rats
  induction of hypothermia: did provide hypothermia
  protection against ischemic damages: protection against ischemic damages
rats
  side effects due to the treatment: hemodynamic and behavioural side effects
